Source: patent EP3922268B1, “NEW DERIVATIVES OBTAINED FROM HYALURONIC ACID AND CARNOSINE” (Fidia Farmaceutici S.p.A., priority 2020, dated 2023)

System: HFF1 cell line (consisting of fibroblasts derived from human skin)
Assay: MTT cell viability assay
Format: cell-based
Settings: HFF1 cells, 5 hours incubation; carnosine alone 0.136 mM
Method: Trial design. The cell response of conjugate (1) in terms of cell viability was determined in vitro by performing the MTT assay (Mosmann T, J Immunol Methods 1983; 65:55-63) on the HFF1 cell line (consisting of fibroblasts derived from human skin). The cells were used at passages 20-23, cultured at 37°C and 5% CO2 in Dulbecco's Modified Eagle Medium (DMEM) with integrated glucose and added with FBS (1%). To conduct the MTT assay, the cells were plated in 96-well multiwell plates (7000 cells per well) in DMEM culture medium with integrated glucose and added with 1% FBS; after 48 hours they were treated with control medium, or with medium alternatively containing carnosine, conjugate (1) prepared as described in EXAMPLE 1, or complexes of conjugate (1) with Cu(II), for 5 hours of incubation at 37°C and 5% CO2. Each treatment was performed in triplicate. […] After removal of the liquid from each well and addition of DMSO (100 µl), the absorbance of the formazan salt (blue) produced by the cleavage reaction of the tetrazolium ring of MTT (yellow) by the mitochondrial enzyme succinate dehydrogenase present in the viable cells only was measured in a multiplate reader (Synergy™ 2 Multi-Mode Microplate Reader) at the wavelength of 570 nm. […]

## NCCC(=O)N[C@@H](Cc1c[nH]cn1)C(=O)O [carnosine, β-alanyl-L-histidine]
  increase in cell viability: did not lead to any increase in cell viability
